According to US20190225650A1, “PEPTIDOMIMETIC MACROCYCLES AND USE THEREOF IN REGULATING HIF1ALPHA” (AILERON THERAPEUTICS, INC., priority 2013, published 2019):
Bridge positions count the residues as written; N and C are the ends. Square brackets hold non-standard residues; d marks the D form. Peptide text beside a SMILES is read from it. S5 = C=CCCC[C@](C)(N)C(=O)O; Nle = CCCC[C@H](N)C(=O)O

System: HRE-bla ME-180 cells
Experiment: Reporter gene assay (HRE-bla ME-180 HIF reporter, GeneBLAzer)
Assay type: cell-based, human
Conditions: for EC50: 24 hour normoxia
Procedure: The following reagents were used:
• DMEM+GutaMAX: (#10569044, Invitrogen) • Black clear bottom plates: (#3603, Costar) • HRE-bla-ME-180 cell line: (#K1644, Invitrogen) • Gene-Blazer reagent & protocol: (#K1096, Invitrogen) • Plate reader: Biotek Synergy 2 • Chetomin: (C9623, Sigma)
4 hours prior to experiment: HRE-bla ME-180 cells were seeded at a density of 20,000 cells/well in a volume of 180 μl in black clear bottom 96-well plates. 180 μl of assay medium was added to the cell-free control wells. Incubation was conducted at 37° C., 5% CO2 for 4 hours.
Diluted chetomin was used as a positive control. Chetomin was diluted in 100% DMSO to a 10 mM stock concentration. A 1 mM stock of chetomin was prepared in 100% DMSO. Then the 1 mM chetomin stock was serially diluted in 1:4 in 100% DMSO. Finally, 50, 12.5, 3.125, 0.78, 0.2, 0.05 μM stock of chetomin in 5% DMSO/water were prepared by adding 114 μL water+6 μL chetomin in DMSO.
Test peptides were diluted before use. The test peptides were diluted in 100% DMSO to a 10 mM stock concentration. Then each 10 mM peptide stock was diluted in 1:3 in 100% DMSO. Finally, 300, 100, 33.3, 11.1, 3.7, 1.2 μM stock of each peptide in 5% DMSO/water were prepared by adding 129.2 μL water+4 μL peptide in DMSO.
20 μl of peptide, chetomin dilution, or DMSO/water control were added to the appropriate wells of a plate to achieve 200 μL final volumes in 0.3% DMSO/media. The plate was first incubated for 18-20 hours in normoxia incubator (37° C. in humidified 5% CO2, 20% O2 atmosphere). Then the plate was transferred to hypoxia incubator for 24 hours (37° C. in humidified 5% CO2, 1% O2 atmosphere)
6× LiveBLAzer™-FRET B/G (CCF4-AM) Substrate Mixture was prepared according to CellSensor™ HRE-bla ME-180 Cell-based Assay Protocol (Invitrogen) and added into each well. Solution A (CCF4-AM) was reconstituted in DMSO to a working concentration of 1 mM, divided in aliquots, and stored at −20° C. The 6× LiveBLAzer-FRET B/G (CCF4-AM) Substrate mixture was prepared by mixing 6 μl of Solution A, 60 μl of Solution B, and 934 μl Solution C.
The plates were removed from incubator and equilibrated to RT for a few minutes. Then 20 μl of 6× Substrate mixture was added to each well. The plates were then incubated at room temperature for 3 hr in the dark and read at 409 Ex/460Em and 409Ex/530Em using the “GeneBlazer-Tungsten with export” program on the Synergy 2.
The average percentage of maximum inhibition was obtained by comparing the peptide treated cells (30 μM) to DMSO vehicle control treated cells. The results are shown in the columns “ME-180 HIF Reporter EC50 (μM) −24 hr normoxia” and “18 h Avg % max inhibition at top conc (HIF Rptr-24 hrsnormoxia) (μM)” of Table 6.

| EC50 [µM] | Structure (SMILES) | 18 h Avg % max inhibition at top conc (HIF Rptr-24 hrs normoxia) (μM) |
| --- | --- | --- |
| > 30 | CC[C@H](C)[C@H](NC(=O)[C@H](Cc1ccccc1)NC(C)=O)C(=O)N[C@@H](CC(=O)O)C(=O)N[C@@H](CCC(=O)O)C(=O)N[C@@H](CCC(=O)O)C(=O)N[C@H](C(=O)N[C@@H](CC(C)C)C(=O)N[C@@H](CCSC)C(=O)N[C@@]1(C)CCCC=CCCC[C@@](C)(C(=O)N[C@@H](CCSC)C(=O)N[C@@H](C)C(=O)N[C@@H](CC(C)C)C(=O)N[C@@H](CC(=O)O)C(=O)N[C@@H](CCCNC(=N)N)C(=O)N[C@H](C(=O)N[C@@H](CCCCN)C(=O)N[C@@H](CCC(=O)O)C(=O)N[C@@H](CC(C)C)C(=O)N2CCC[C@H]2C(=O)N[C@@H](CCC(=O)O)C(=O)N[C@@H](CC(C)C)C(=O)N[C@@H](Cc2c[nH]c3ccccc23)C(=O)N[C@@H](CC(C)C)C(N)=O)[C@@H](C)CC)NC(=O)[C@H]([C@@H](C)CC)NC(=O)[C@H](C(C)C)NC(=O)[C@H](CC(C)C)NC1=O)C(C)C [SP-3] (Ac-FIDEEVLM[S5]LVI[S5]MALDRIKELPELWL-NH2; staple 9-13) | +++ (≤25 but <50: +++) |
| 15 to 30 | CCCC[C@H](NC(=O)[C@H](CC(C)C)NC(=O)[C@@H](NC(=O)[C@H](CCC(=O)O)NC(=O)[C@H](CCC(=O)O)NC(=O)[C@H](CC(=O)O)NC(=O)[C@@H](NC(=O)[C@H](C)NC(C)=O)[C@@H](C)CC)C(C)C)C(=O)N[C@@]1(C)CCCC=CCCC[C@@](C)(C(=O)N[C@@H](CCCC)C(=O)N[C@@H](C)C(=O)N[C@@H](CC(C)C)C(=O)N[C@@H](CC(=O)O)C(=O)N[C@@H](CCCNC(=N)N)C(=O)N[C@H](C(N)=O)[C@@H](C)CC)NC(=O)[C@H]([C@@H](C)CC)NC(=O)[C@H](C(C)C)NC(=O)[C@H](CC(C)C)NC1=O [SP-9] (Ac-AIDEEVL[Nle][S5]LVI[S5][Nle]ALDRI-NH2; staple 9-13) | +++ (≤25 but <50: +++) |
| 5 to 15 | CCCC[C@H](NC(=O)[C@H](CC(C)C)NC(=O)[C@@H](NC(=O)[C@H](CCC(=O)O)NC(=O)[C@H](CCC(=O)O)NC(=O)[C@H](C)NC(=O)[C@@H](NC(=O)[C@H](Cc1ccccc1)NC(C)=O)[C@@H](C)CC)C(C)C)C(=O)N[C@@]1(C)CCCC=CCCC[C@@](C)(C(=O)N[C@@H](CCCC)C(=O)N[C@@H](C)C(=O)N[C@@H](CC(C)C)C(=O)N[C@@H](CC(=O)O)C(=O)N[C@@H](CCCNC(=N)N)C(=O)N[C@H](C(N)=O)[C@@H](C)CC)NC(=O)[C@H]([C@@H](C)CC)NC(=O)[C@H](C(C)C)NC(=O)[C@H](CC(C)C)NC1=O [SP-11] (Ac-FIAEEVL[Nle][S5]LVI[S5][Nle]ALDRI-NH2; staple 9-13) | ++++ (≥50: ++++) |
| 5 to 15 | CCCC[C@H](NC(=O)[C@H](CC(C)C)NC(=O)[C@@H](NC(=O)[C@H](CCC(=O)O)NC(=O)[C@H](C)NC(=O)[C@H](CC(=O)O)NC(=O)[C@@H](NC(=O)[C@H](Cc1ccccc1)NC(C)=O)[C@@H](C)CC)C(C)C)C(=O)N[C@@]1(C)CCCC=CCCC[C@@](C)(C(=O)N[C@@H](CCCC)C(=O)N[C@@H](C)C(=O)N[C@@H](CC(C)C)C(=O)N[C@@H](CC(=O)O)C(=O)N[C@@H](CCCNC(=N)N)C(=O)N[C@H](C(N)=O)[C@@H](C)CC)NC(=O)[C@H]([C@@H](C)CC)NC(=O)[C@H](C(C)C)NC(=O)[C@H](CC(C)C)NC1=O [SP-12] (Ac-FIDAEVL[Nle][S5]LVI[S5][Nle]ALDRI-NH2; staple 9-13) | ++++ (≥50: ++++) |
| 5 to 15 | CCCC[C@H](NC(=O)[C@H](CC(C)C)NC(=O)[C@@H](NC(=O)[C@H](C)NC(=O)[C@H](CCC(=O)O)NC(=O)[C@H](CC(=O)O)NC(=O)[C@@H](NC(=O)[C@H](Cc1ccccc1)NC(C)=O)[C@@H](C)CC)C(C)C)C(=O)N[C@@]1(C)CCCC=CCCC[C@@](C)(C(=O)N[C@@H](CCCC)C(=O)N[C@@H](C)C(=O)N[C@@H](CC(C)C)C(=O)N[C@@H](CC(=O)O)C(=O)N[C@@H](CCCNC(=N)N)C(=O)N[C@H](C(N)=O)[C@@H](C)CC)NC(=O)[C@H]([C@@H](C)CC)NC(=O)[C@H](C(C)C)NC(=O)[C@H](CC(C)C)NC1=O [SP-13] (Ac-FIDEAVL[Nle][S5]LVI[S5][Nle]ALDRI-NH2; staple 9-13) | ++++ (≥50: ++++) |
| 5 to 15 | CCCC[C@H](NC(=O)[C@H](CC(C)C)NC(=O)[C@H](C)NC(=O)[C@H](CCC(=O)O)NC(=O)[C@H](CCC(=O)O)NC(=O)[C@H](CC(=O)O)NC(=O)[C@@H](NC(=O)[C@H](Cc1ccccc1)NC(C)=O)[C@@H](C)CC)C(=O)N[C@@]1(C)CCCC=CCCC[C@@](C)(C(=O)N[C@@H](CCCC)C(=O)N[C@@H](C)C(=O)N[C@@H](CC(C)C)C(=O)N[C@@H](CC(=O)O)C(=O)N[C@@H](CCCNC(=N)N)C(=O)N[C@H](C(N)=O)[C@@H](C)CC)NC(=O)[C@H]([C@@H](C)CC)NC(=O)[C@H](C(C)C)NC(=O)[C@H](CC(C)C)NC1=O [SP-14] (Ac-FIDEEAL[Nle][S5]LVI[S5][Nle]ALDRI-NH2; staple 9-13) | ++++ (≥50: ++++) |
| ≤ 5 | CCCC[C@H](NC(=O)[C@H](C)NC(=O)[C@@H](NC(=O)[C@H](CCC(=O)O)NC(=O)[C@H](CCC(=O)O)NC(=O)[C@H](CC(=O)O)NC(=O)[C@@H](NC(=O)[C@H](Cc1ccccc1)NC(C)=O)[C@@H](C)CC)C(C)C)C(=O)N[C@@]1(C)CCCC=CCCC[C@@](C)(C(=O)N[C@@H](CCCC)C(=O)N[C@@H](C)C(=O)N[C@@H](CC(C)C)C(=O)N[C@@H](CC(=O)O)C(=O)N[C@@H](CCCNC(=N)N)C(=O)N[C@H](C(N)=O)[C@@H](C)CC)NC(=O)[C@H]([C@@H](C)CC)NC(=O)[C@H](C(C)C)NC(=O)[C@H](CC(C)C)NC1=O [SP-15] (Ac-FIDEEVA[Nle][S5]LVI[S5][Nle]ALDRI-NH2; staple 9-13) | ++++ (≥50: ++++) |
| ≤ 5 | CCCC[C@H](NC(=O)[C@]1(C)CCCC=CCCC[C@](C)(NC(=O)[C@H](C)NC(=O)[C@H](CC(C)C)NC(=O)[C@@H](NC(=O)[C@H](CCC(=O)O)NC(=O)[C@H](CCC(=O)O)NC(=O)[C@H](CC(=O)O)NC(=O)[C@@H](NC(=O)[C@H](Cc2ccccc2)NC(C)=O)[C@@H](C)CC)C(C)C)C(=O)N[C@@H](CC(C)C)C(=O)N[C@@H](C(C)C)C(=O)N[C@@H]([C@@H](C)CC)C(=O)N1)C(=O)N[C@@H](C)C(=O)N[C@@H](CC(C)C)C(=O)N[C@@H](CC(=O)O)C(=O)N[C@@H](CCCNC(=N)N)C(=O)N[C@H](C(N)=O)[C@@H](C)CC [SP-16] (Ac-FIDEEVLA[S5]LVI[S5][Nle]ALDRI-NH2; staple 9-13) | ++++ (≥50: ++++) |
| 5 to 15 | CCCC[C@H](NC(=O)[C@H](CC(C)C)NC(=O)[C@@H](NC(=O)[C@H](CCC(=O)O)NC(=O)[C@H](CCC(=O)O)NC(=O)[C@H](CC(=O)O)NC(=O)[C@@H](NC(=O)[C@H](Cc1ccccc1)NC(C)=O)[C@@H](C)CC)C(C)C)C(=O)N[C@@]1(C)CCCC=CCCC[C@@](C)(C(=O)N[C@@H](CCCC)C(=O)N[C@@H](C)C(=O)N[C@@H](CC(C)C)C(=O)N[C@@H](CC(=O)O)C(=O)N[C@@H](CCCNC(=N)N)C(=O)N[C@H](C(N)=O)[C@@H](C)CC)NC(=O)[C@H]([C@@H](C)CC)NC(=O)[C@H](C(C)C)NC(=O)[C@H](C)NC1=O [SP-17] (Ac-FIDEEVL[Nle][S5]AVI[S5][Nle]ALDRI-NH2; staple 9-13) | ++++ (≥50: ++++) |
| 5 to 15 | CCCC[C@H](NC(=O)[C@H](CC(C)C)NC(=O)[C@@H](NC(=O)[C@H](CCC(=O)O)NC(=O)[C@H](CCC(=O)O)NC(=O)[C@H](CC(=O)O)NC(=O)[C@@H](NC(=O)[C@H](Cc1ccccc1)NC(C)=O)[C@@H](C)CC)C(C)C)C(=O)N[C@@]1(C)CCCC=CCCC[C@@](C)(C(=O)N[C@@H](CCCC)C(=O)N[C@@H](C)C(=O)N[C@@H](CC(C)C)C(=O)N[C@@H](CC(=O)O)C(=O)N[C@@H](CCCNC(=N)N)C(=O)N[C@H](C(N)=O)[C@@H](C)CC)NC(=O)[C@H]([C@@H](C)CC)NC(=O)[C@H](C)NC(=O)[C@H](CC(C)C)NC1=O [SP-18] (Ac-FIDEEVL[Nle][S5]LAI[S5][Nle]ALDRI-NH2; staple 9-13) | ++++ (≥50: ++++) |
